Assay results as given in US10538520B2, “Benzamide and nicotinamide compounds and methods of using same” (OncoTartis Inc., priority 2013, dated 2020).

What was measured:
MV4-11 cells [1] = assay: Systemic (disseminated) MV4-11 model of AML in SCID mice, survival; type: in vivo; conditions: 6 days per week, days 4-58, IV MV4-11 (FIG. 3)
Experimental: FIG. 3. Example of survival of SCID mice inoculated via IV route with MV4-11 cells and treated via oral gavage with vehicle control, TT-01901 at 100 mg/kg and TT-03586 at 50 mg/kg 6 days per week on days 4-58. Mice were sacrificed according to IACUC regulations after losing more than 20% of body weight or becoming moribund and paralyzed.
(§1) Efficacy of compounds was tested in two types of xenograft models of leukemia: subcutaneous (SC) (development of tumors after SC inoculation of cells) and systemic and disseminated (development of tumors on different organs after intravenous inoculation of cells). MV4-11 cells (ATCC CRL-9591) of acute myelomonocytic leukemia (AML) were used.
In this model leukemia cells either from patient of from cell lines are administered intravenously into mice and leukemia cells are engrafted into blood and blood-forming organs (bone marrow, thymus, spleen).
In systemic model of AML SCID mice were irradiated with 3 Gy and inoculated intravenously with MV4-11 cells 24 h after irradiation. Mice were treated with vehicle control, TT-01901 and TT-03586 during days 4-58 (FIG. 3). 30 days after cells implantation mice treated with vehicle were gradually becoming sick, scruffy and were losing weight. […] The ratio of survival of treated mice versus survival of control mice in percent (T/C) was calculated using formula: T/C %=average survival time for treated mice/average survival time for control mice*100. Increase in the survival (IS) was calculated using formula: IS=(average survival time of treated mice−average survival time of control mice)/average survival time of control mice*100. […] The corresponding increase in survival was 35% and 48%.

U-937 = assay: Cytotoxicity towards U-937 cell line; type: cell-based; conditions: Homo sapiens
Experimental: (§2) In various embodiments, the compounds of the disclosure are those in which show IC50 values in cytotoxicity experiments towards cells lines MV4-11 and U937 of >20 μM, 10-20 μM, 5-10 μM, 1-5 μM, or <1 μM.
(§3) The IC50 is divided into 5 categories: A<1 μM, B 1-5 μM, C 5-10 μM, D 10-20 μM, and E>20 μM.

MV4-11 = assay: Cytotoxicity towards MV4-11 cell line; type: cell-based; conditions: Homo sapiens
Experimental: as §2, §3

MV4-11 cells [2] = assay: Subcutaneous MV4-11 xenograft model of AML in SCID mice, tumor growth; type: in vivo; conditions: for maximum suppression of tumor growth (STG %): 6 days per week; for effect on tumor growth: SCID mice inoculated SC with MV4-11 cells (FIGS. 1 and 2)
Experimental: FIG. 1. Example of growth of tumors in MV4-11 xenograft model of AML in SCID mice treated with vehicle control and TT-03197 at 10 mg/kg and 40 mg/kg administered intraperitoneally. Mice were treated 6 days per week as indicated on the figure. Results are Mean±SE (n=14-16).
FIG. 2. Example of growth of tumors in MV4-11 xenograft model of AML in SCID mice treated with vehicle control and TT-03203 at 10 mg/kg and 25 mg/kg administered orally. Mice were treated 6 days per weeks as indicated on the figure. Results are Mean±SE (n=17-20)
as §1
The maximum suppression of tumor growth (calculated using formula: STG %=(volume control-volume treated)/volume control*100) was 28% for mice treated with 10 mg/kg of TT-03197 and 55% for mice treated with 40 mg/kg of […] (FIG. 1). For TT-03203 the maximum STG was 27% for mice treated PO with 10 mg/kg of TT-03203 and 46% for mice treated with 25 mg/kg of TT-03203 (FIG. 2).

Row | Compound | IC50 (U-937) | IC50 (MV4-11) | further results
1 | O=C(NCCCn1ccnc1)c1ccc(-n2cccn2)c(C#Cc2ccccc2)c1 [TT-01901] | < 1000 nM | < 1000 nM | increase in survival (IS) (MV4-11 cells [1]; 100 mg/kg oral gavage): 35%; survival of treated mice versus control mice (T/C %) (MV4-11 cells [1]; 100 mg/kg oral gavage): 135%
2 | O=C(NCCCc1cn[nH]c1)c1ccc(-n2cccn2)c(C#Cc2ccc(F)cc2)c1 [TT-03197] | < 1000 nM | < 1000 nM | maximum suppression of tumor growth (STG %) (MV4-11 cells [2]; 10 mg/kg, intraperitoneally, SC MV4-11 xenograft (FIG. 1)): 28%; effect on tumor growth (MV4-11 cells [2]): dose-dependent reduction of tumor growth
3 | O=C(NCCCc1cn[nH]c1)c1ccc(-n2cccn2)c(C#Cc2ccc(Cl)cc2)c1 [TT-03203] | < 1000 nM | < 1000 nM | maximum suppression of tumor growth (STG %) (MV4-11 cells [2]; 10 mg/kg PO, SC MV4-11 xenograft (FIG. 2)): 27%; maximum suppression of tumor growth (STG %) (MV4-11 cells [2]; 25 mg/kg PO, SC MV4-11 xenograft (FIG. 2)): 46%; maximum suppression of tumor growth (STG %) (MV4-11 cells [2]; 40 mg/kg, intraperitoneally, SC MV4-11 xenograft (FIG. 1)): 55%; effect on tumor growth (MV4-11 cells [2]): dose-dependent reduction of tumor growth
4 | O=C(NCCCc1cn[nH]c1)c1ccc(N2CCOCC2)c(C#Cc2ccc(F)cc2)c1 [TT-03586] | < 1000 nM | < 1000 nM | increase in survival (IS) (MV4-11 cells [1]; 50 mg/kg oral gavage): 48%; survival of treated mice versus control mice (T/C %) (MV4-11 cells [1]; 50 mg/kg oral gavage): 148%
5 | C[C@@H]1CN(c2ccc(C(=O)N[C@@H]3CC[C@@H](n4ccnc4)[C@@H]3O)cc2C#Cc2ccc(F)cc2)C[C@H](C)O1 [TT-03733] | 1000 to 5000 nM | < 1000 nM | 
6 | Cc1nccn1CCCNC(=O)c1ccc(N2CCN(CCOCCOCCOCCN)CC2)c(C#Cc2ccc(F)cc2)c1 [TT-03749] | 10000 to 20000 nM | 1000 to 5000 nM | 
7 | C[C@@H]1CN(c2ncc(C(=O)NCCCc3cn[nH]c3)cc2C#Cc2ccc(F)cc2)C[C@H](C)O1 [TT-03750] | < 1000 nM | < 1000 nM | 
8 | C[C@@H]1CN(c2ncc(C(=O)NC/C=C/c3cn[nH]c3)cc2C#Cc2ccc(F)cc2)C[C@H](C)O1 [TT-03751] | < 1000 nM | < 1000 nM | 
9 | C[C@@H]1CN(c2ncc(C(=O)NC/C=C/c3cn[nH]c3)cc2C#Cc2ccc(Cl)cc2)C[C@H](C)O1 [TT-03752] | < 1000 nM | < 1000 nM | 
10 | C[C@@H]1CN(c2ncc(C(=O)NCCCc3cn[nH]c3)cc2C#Cc2ccc(Cl)cc2)C[C@H](C)O1 [TT-03753] | < 1000 nM | < 1000 nM | 
11 | C[C@@H]1CN(c2ccc(C(=O)NCCCc3cn[nH]c3)cc2C#Cc2ccc(Cl)cc2)C[C@H](C)O1 [TT-03754] | < 1000 nM | < 1000 nM | 
12 | O=C1CC2CCC(CN1)N2c1ncc(C(=O)NCCCc2cn[nH]c2)cc1C#Cc1ccc(F)cc1 (stereo not drawn) [TT-03765] | < 1000 nM | < 1000 nM | 
13 | O=C(NCCCc1cn[nH]c1)c1ccc(-c2cc[n+]([O-])cc2)c(C#Cc2ccc(F)cc2)c1 [TT-03773] | < 1000 nM | < 1000 nM | 
14 | O=C(NCC(O)Cc1cn[nH]c1)c1cnc(N2CCOCC2)c(C#Cc2ccc(F)cc2)c1 (stereo not drawn) [TT-03774] | 1000 to 5000 nM | < 1000 nM | 
15 | O=C(NCCCc1cn[nH]c1)c1cnc(N2CC[S+]([O-])CC2)c(C#Cc2ccc(F)cc2)c1 [TT-03782] | < 1000 nM | < 1000 nM | 
16 | O=C(NCCCc1cn[nH]c1)c1cnc(N2CCS(=O)(=O)CC2)c(C#Cc2ccc(F)cc2)c1 [TT-03783] | < 1000 nM | < 1000 nM | 
